Where “and” joins values, the source holds several entries; their conditions need not be identical. Equal entries are not always repeated. Where two headings read alike, the source gives them in different places.
Assays:
[1] = tested on: SKES cells (Ewing Sarcoma cell line); experiment: CCK-8 tetrazolium tumor cell growth inhibition, SKES; type: cell-based; conditions: Homo sapiens
Description: A modified tetrazolium salt assay using the CCK-8 kit (Sigma-Aldrich; St Louis, Mo.) was used to measure the inhibition of human tumor cell growth. Tumor cells (5000-7500 per well) were added to 96 well plates and allowed to attach for 4-5 hours. Compounds were serially diluted and added in triplicate at a concentration of 0.02 to 5 μM. DMSO was included as a vehicle control. Cells were incubated in the presence of compound for 3 days. After incubation CCK-8 reagent was added to each well and incubated for 2-4 hours. Viable cells were quantitated spectrophotometrically at a wavelength of 450 nm. Percent viability of each sample was calculated from the A450 values as follows: % viability=(A450 nm sample/A450 nm DMSO-treated cells×100). […] IC50 activities of particular compounds were determined using SKES cells (Ewing Sarcoma cell line).

[2] = Pharmacokinetics after IV and oral administration; type: in vivo; conditions: BALB/c mice or Sprague Dawley rats
Description: Certain pharmacokinetics parameters were determined for certain compounds in vivo for intravenous and oral administration. Briefly, compounds were formulated and administered using IV bolus, continuous IV infusion or oral administration. Blood was collected at multiple time points over 24 hours and processed into plasma. Plasma was analyses for parent using LC/MS/MS. Certain parameters for certain compounds were obtained in duplicate.

[3] = 72 h, SKES cells, 3 days with compound, CCK-8 (TABLE 3)
[4] = 20 mg/kg po, labrasol/tetraglycol 9:1
[5] = 20 mg/kg po, labrasol:tetraglycol:water 72:8:20
[6] = plasma, iv, 5 mg/kg, 5 mg/kg IV, captisol
[7] = plasma, po, 20 mg/kg, 20 mg/kg po, labrasol/tetraglycol 9:1
[8] = plasma, po, 20 mg/kg, 20 mg/kg po, labrasol:tetraglycol:water 72:8:20

| Structure (SMILES) | IC50 [1, 3] | IC50 ([1]; SKES, ES, EWS-FLI1 Type 2) | further results |
| --- | --- | --- | --- |
| O=C(CC1(O)C(=O)Nc2c(Cl)ccc(Cl)c21)c1ccc(C2CC2)c(F)c1 (racemic) [Cmpd 26, 4,7-Dichloro-3-(2-(4-cyclopropyl-3-fluorophenyl)-2-oxoethyl)-3-hydroxyindolin-2-one] | < 5 µM | < 5 µM | – |
| O=C(CC1(O)C(=O)Nc2c(Cl)ccc(Cl)c21)c1ccc(N2CC2)cc1 (racemic) [Cmpd 8, 3-(2-(4-(Aziridin-1-yl)phenyl)-2-oxoethyl)-4,7-dichloro-3-hydroxyindolin-2-one] | < 5 µM | < 5 µM | – |
| CNc1ccc(C(=O)CC2(O)C(=O)Nc3c(Cl)ccc(Cl)c32)cc1 (single isomer, unassigned) [Cmpd 5, 4,7-dichloro-3-hydroxy-3-[2-[4-(methylamino)phenyl]-2-oxoethyl]-1H-indol-2-one] | – | – | AUC ([2]; 5 mg/kg IV, captisol): 2324 h * (ng/mL) and 3207 h * (ng/mL); AUC [2, 4]: 5192 h * (ng/mL) and 4939 h * (ng/mL); Tmax [2, 4]: 30 min; % F [2, 5]: 39%; AUC [2, 5]: 4354 h * (ng/mL) and 4081 h * (ng/mL); Tmax [2, 5]: 30 min; Cmax [2, 6]: 13000 ng/mL; half-life [2, 6]: 102 min; Tmax ([2]; plasma, iv, 5 mg/kg, 5 mg/kg IV, captisol, read-out: Tmax): 1.98 min; Cmax [2, 7]: 2180 ng/mL; bioavailability [2, 7]: 56%; half-life [2, 7]: 186 min; Tmax ([2]; plasma, po, 20 mg/kg, 20 mg/kg po, labrasol/tetraglycol 9:1, read-out: Tmax): 60 min; Cmax [2, 8]: 1570 ng/mL; bioavailability [2, 8]: 47%; half-life [2, 8]: 168 min; Tmax ([2]; plasma, po, 20 mg/kg, 20 mg/kg po, labrasol:tetraglycol:water 72:8:20, read-out: Tmax): 60 min |
| O=C(CC1(O)C(=O)Nc2c(Cl)ccc(Cl)c21)c1cccnc1 (racemic) [Cmpd 31, 4,7-dichloro-3-hydroxy-3-(2-oxo-2-(pyridin-3-yl)ethyl)indolin-2-one] | > 5 µM | > 5 µM | – |
| O=C(CC1(O)C(=O)Nc2c(Cl)ccc(Cl)c21)c1ccc(F)c(F)c1 (racemic) [Cmpd 35, 4,7-dichloro-3-(2-(3,4-difluorophenyl)-2-oxoethyl)-3-hydroxyindolin-2-one] | > 5 µM | > 5 µM | – |
| O=C(CC1(O)C(=O)Nc2c(Cl)ccc(Cl)c21)c1ccc(N2CCCC2)c(F)c1 (racemic) [Cmpd 21, 4,7-Dichloro-3-(2-(3-fluoro-4-(pyrrolidin-1-yl)phenyl)-2-oxoethyl)-3-hydroxyindolin-2-one] | > 5 µM | > 5 µM | – |
| O=C(CC1(O)C(=O)Nc2c(Cl)ccc(Cl)c21)c1ccc(-n2cccn2)cc1 (racemic) [Cmpd 16, 3-(2-(4-(1H-Pyrazol-1-yl)phenyl)-2-oxoethyl)-4,7-dichloro-3-hydroxyindolin-2-one] | > 5 µM | > 5 µM | – |
| O=C(CC1(O)C(=O)Nc2c(Cl)ccc(Cl)c21)c1ccccn1 (racemic) [Cmpd 32, 4,7-dichloro-3-hydroxy-3-(2-oxo-2-(pyridin-2-yl)ethyl)indolin-2-one] | > 5 µM | > 5 µM | – |

Continued, in another order:

| IC50 [1, 3] | IC50 ([1]; SKES, ES, EWS-FLI1 Type 2) | Structure (SMILES) | further results |
| --- | --- | --- | --- |
| > 5 µM | > 5 µM | CN(C)C12CCC(C(=O)CC3(O)C(=O)Nc4c(Cl)ccc(Cl)c43)(CC1)CC2 (racemic) [Cmpd 25, 4,7-Dichloro-3-(2-(4-(dimethylamino)bicyclo[2.2.2]octan-1-yl)-2-oxoethyl)-3-hydroxyindolin-2-one] | – |
| > 5 µM | > 5 µM | O=C(CC1(O)C(=O)Nc2c(Cl)ccc(Cl)c21)c1ccc(N2CCCC2)cc1 (centres unmarked) [Cmpd 17, 4,7-Dichloro-3-hydroxy-3-(2-oxo-2-(4-(pyrrolidin-1-yl)phenyl)ethyl)indolin-2-one] | – |
| > 5 µM | > 5 µM | COC12CCC(C(=O)CC3(O)C(=O)Nc4c(Cl)ccc(Cl)c43)(CC1)CC2 (racemic) [Cmpd 24, 4,7-Dichloro-3-hydroxy-3-(2-(4-methoxybicyclo[2.2.2]octan-1-yl)-2-oxoethyl)indolin-2-one] | – |
| < 5 µM | < 5 µM | O=C(CC1(O)C(=O)Nc2c(Cl)ccc(Cl)c21)c1ccc(N2CCC2)cc1 (racemic) [Cmpd 22, 3-(2-(4-(Azetidin-1-yl)phenyl)-2-oxoethyl)-4,7-dichloro-3-hydroxyindolin-2-one] | – |
| < 5 µM | < 5 µM | O=C(CC1(O)C(=O)Nc2c(Cl)ccc(Cl)c21)c1ccc(C2CC2)cc1F (racemic) [Cmpd 27, 4,7-Dichloro-3-(2-(4-cyclopropyl-2-fluorophenyl)-2-oxoethyl)-3-hydroxyindolin-2-one] | – |

Source: US9895352B2, “Indolinone compounds and uses thereof” (Oncternal Therapeutics, Inc., priority 2014, dated 2018)
